Source: US5496697A, “Methods and apparatus for detecting the effect of cell affecting agents on living cells” (priority 1993, dated 1996)

How the values were obtained:
Dx5 = details: previously characterized; cited from earlier work
MDCK cells = assay: metabolic rate of MDCK cells grown on the silicon sensor surface; assay type: cell-based, canine; details: 3 μM epinephrine, primary introduction

## COc1cccc2c1C(=O)c1c(O)c3c(c(O)c1C2=O)C[C@@](O)(C(=O)CO)C[C@@H]3O[C@H]1C[C@H](N)[C@H](O)[C@H](C)O1 [doxorubicin]
Dx5
  resistance of Dx5: resistant

## CNC[C@H](O)c1ccc(O)c(O)c1 [epinephrine]
MDCK cells
  change of metabolic rate vs. control rate: did not significantly alter the metabolic rate

## CC[C@]1(O)C[C@H]2CN(CCc3c([nH]c4ccccc34)[C@@](C(=O)OC)(c3cc4c(cc3OC)N(C=O)[C@H]3[C@@](O)(C(=O)OC)[C@H](OC(C)=O)[C@]5(CC)C=CCN6CC[C@]43[C@@H]65)C2)C1 [vincristine]
Dx5
  resistance of Dx5: resistant
